Measured values from US20070244110A1, “Treatment of prostate cancer, melanoma or hepatic cancer” (ZENYAKU KOGYO KABUSHIKI KAISHA, priority 2006, published 2007).

Tests used:
[1] = system: Hepatoma HepG2 cells; assay: In vitro anti-tumor experiment, growth inhibition of HepG2 cells; format: cell-based; settings: HepG2, 72 hours incubation
Experimental: (§1) Hepatoma HepG2 cells were cultured in a MEM culture medium (containing 10% fetal bovine serum, 25 mM HEPES and 0.1 mg/ml kanamycin) under conditions of 5% carbon dioxide at 37° C. HepG2 cells were harvested as single free cells by a tripsin/EDTA treatment in the logarithmic growth phase, and a cell suspension solution consisted of 2×10^4 cells per ml was prepared with MEM culture medium (containing 10% fetal bovine serum, 25 mM HEPES and 0.1 mg/ml kanamycin). The test compound was dissolved in DMSO, then diluted with RPMI1640 culture medium (containing 10% fetal bovine serum, 25 mM HEPES, 0.1 mg/ml kanamycin), and adjusted to a concentration of 2.0×10^−9 to 2.0×10^−3 M.
(§2) 0.1 ml of the cell suspension solution was put in each well of a 96-well plate, then cultured for 24 hours to make the cells adhere to the microplates, and 0.1 ml of the test compound was added in each well and incubated for 72 hours under conditions of 5% carbon dioxide at 37° C. The 50% growth inhibition concentration (GI50 value μM) was computed from the growth inhibition rates at various test sample concentrations, and the results are shown in Table 1.

[2] = system: PC-3 prostate cancer cells; assay: In vitro anti-tumor experiment, growth inhibition of PC-3 cells; format: cell-based; settings: PC-3, 72 hours incubation
Experimental: as §1, §2
(§3) When using cells other than HepG2 cells, the following culture media were used instead of the MEM culture medium, and the following single cell suspensions were prepared with the following media:
PC-3 prostate cancer cells:
F12K culture medium containing 10% fetal bovine serum, 2×10^4 cell suspension

[3] = system: B16F10 melanoma cells; assay: In vitro anti-tumor experiment, growth inhibition of B16F10 cells; format: cell-based; settings: B16F10, 72 hours incubation
Experimental: as §1, §2, §3
RPMI1640 culture medium containing 10% fetal bovine serum, 1×10^4 cell suspension

[4] = system: PC-3 prostate cancer cells; assay: In vivo anti-tumor experiment, PC-3 human tumor xenograft; design: species or system BALB/c nude mice; settings: 6 days a week for two weeks, day 14
Experimental: (§4) Human tumor xenografts were generated with PC-3 prostate cancer cells, and WiDr colon cancer cells, and were grown as subcutaneous tumors in mutant BALB/c nude mice. Each nude mouse was subcutaneously inoculated with a tumor fragment of 2 mm by 2 mm by 2 mm. When tumors reached a volume of 100-300 mm^3, animals were divided randomly into test groups of five mice (day 0). The samples were orally administered at a dosage of 100, 200 or 400 mg/kg once daily, 6 days a week for two weeks. The length (L) and width (W) of the subcutaneous tumor mass were measured by calipers in live mice, and the tumor volume (TV) was calculated as: TV=(L×W^2)/2. The tumor volume at day n was expressed as relative tumor volume (RTV), according to the formula RTV=TVn/TV0, where TVn is the tumor volume at day n, and TV0 is the tumor volume at day 0. T/C% on day 14 was determined by calculating RTV as: T/C%=100×(mean RTV of treated group)/(mean RTV of control group). The specimens in which T/C (%) was 50% or less and having a significant difference at P value 1% on one side in a Mann-Whitney U test were evaluated as effective (+).

[5] = system: WiDr colon cancer cells; assay: In vivo anti-tumor experiment, WiDr human tumor xenograft (reference); design: species or system BALB/c nude mice; settings: 6 days a week for two weeks, day 14
Experimental: as §4

## CC1(C)CN(c2nc(N3CCOCC3)nc(-n3c(C(F)F)nc4c(Cl)cc(N)cc43)n2)CCO1 [Compound 12, 2-(6-amino-4-chloro-2-difluoromethylbenzimidazol-1-yl)-4-(2,2-dimethylmorpholino)-6-morpholino-1,3,5-triazine]
[1]; Homo sapiens
  GI50: 260 nM
[2]; Homo sapiens
  GI50: 100 nM
[3]; Mus musculus, B16-F10
  GI50: 270 nM
other
  melting point: 238 °C (dec.)

## COc1cccc2c1nc(C(F)F)n2-c1nc(N2CCOCC2)cc(N2C[C@@H](C)O[C@@H](C)C2)n1 [Compound 6, 2-(2-difluoromethyl-4-methoxybenzimidazol-1-yl)-4-(cis-2,6-dimethylmorpholino)-6-moropholinopyrimidine]
[1]
  GI50: 890 nM
[2]
  GI50: 540 nM
[3]
  GI50: 1210 nM
[4]; 100 mg/kg orally once daily
  Evaluation effective (+), Prostate Cancer: + (T/C (%) was 50% or less and having a significant difference at P value 1% on one side in a Mann-Whitney U test were evaluated as effective (+))
  T/C (%) Prostate Cancer: 32.3%
[4]; 200 mg/kg orally once daily
  Evaluation effective (+), Prostate Cancer: + (T/C (%) was 50% or less and having a significant difference at P value 1% on one side in a Mann-Whitney U test were evaluated as effective (+))
  T/C (%) Prostate Cancer: 16.2%
[5]; 100 mg/kg orally once daily
  Evaluation effective (+), Colon Cancer (reference): + (T/C (%) was 50% or less and having a significant difference at P value 1% on one side in a Mann-Whitney U test were evaluated as effective (+))
  T/C (%) Colon Cancer (reference): 24.8%
[5]; 200 mg/kg orally once daily
  Evaluation effective (+), Colon Cancer (reference): + (T/C (%) was 50% or less and having a significant difference at P value 1% on one side in a Mann-Whitney U test were evaluated as effective (+))
  T/C (%) Colon Cancer (reference): 29.5%

## COc1cccc2c1nc(C(F)F)n2-c1nc(N2CCOCC2)nc(N2CCOCC2)n1 [Compound 4, 2-(2-difluoromethyl-4-methoxybenzimidazol-1-yl)-4,6-dimorpholino-1,3,5-triazine]
[1]; Homo sapiens
  GI50: 340 nM
[2]; Homo sapiens
  GI50: 190 nM
[3]; Mus musculus, B16-F10
  GI50: 250 nM

## CC(=O)Oc1cccc2c1nc(C(F)F)n2-c1nc(N2CCOCC2)cc(N2C[C@@H](C)O[C@@H](C)C2)n1 [Compound 13, 2-(2-difluoromethyl-4-acetoxybenzimidazol-1-yl)-4-(cis-2,6-dimethylmoropholino)-6-morpholinopyrimidine]
[4]; 200 mg/kg orally once daily
  T/C (%) Prostate Cancer: 65.4%

## CC1(C)COCCN1c1cc(N2CCOCC2)nc(-n2c(C(F)F)nc3c(O)cccc32)n1 [Compound 10, 2-(2-difluoromethyl-4-hydroxybenzimidazol-1-yl)-4-(3,3-dimethylmoropholino)-6-morpholinopyrimidine]
[1]
  GI50: 90 nM
[2]
  GI50: 20 nM
[3]
  GI50: 42 nM
[4]; 200 mg/kg orally once daily
  Evaluation effective (+), Prostate Cancer: + (T/C (%) was 50% or less and having a significant difference at P value 1% on one side in a Mann-Whitney U test were evaluated as effective (+))
  T/C (%) Prostate Cancer: 38.1%
[4]; 400 mg/kg orally once daily
  Evaluation effective (+), Prostate Cancer: + (T/C (%) was 50% or less and having a significant difference at P value 1% on one side in a Mann-Whitney U test were evaluated as effective (+))
  T/C (%) Prostate Cancer: 20.8%
[5]; 200 mg/kg orally once daily
  Evaluation effective (+), Colon Cancer (reference): + (T/C (%) was 50% or less and having a significant difference at P value 1% on one side in a Mann-Whitney U test were evaluated as effective (+))
  T/C (%) Colon Cancer (reference): 46.2%
[5]; 400 mg/kg orally once daily
  T/C (%) Colon Cancer (reference): 63.1%

## C[C@@H]1CN(c2nc(N3CCOCC3)nc(-n3c(C(F)F)nc4c(O)cccc43)n2)C[C@H](C)O1 [Compound 11, 2-(2-difluoromethyl-4-hydroxybenzimidazol-1-yl)-4-(cis-2,6-dimethylmorpholino)-6-morpholino-1,3,5-triazine]
[4]; 200 mg/kg orally once daily
  T/C (%) Prostate Cancer: 66.5%
[4]; 400 mg/kg orally once daily
  Evaluation effective (+), Prostate Cancer: + (T/C (%) was 50% or less and having a significant difference at P value 1% on one side in a Mann-Whitney U test were evaluated as effective (+))
  T/C (%) Prostate Cancer: 44.3%
[5]; 200 mg/kg orally once daily
  T/C (%) Colon Cancer (reference): 85.4%
[5]; 400 mg/kg orally once daily
  T/C (%) Colon Cancer (reference): 83.5%
other
  melting point: 214 to 215 °C

## FC(F)c1nc2ccccc2n1-c1nc(N2CCOCC2)nc(N2CCOCC2)n1 [Compound 1, 2-(2-difluoromethylbenzimidazol-1-yl)-4,6-dimorpholino-1,3,5-triazine]
[1]; Homo sapiens
  GI50: 1150 nM
[2]; Homo sapiens
  GI50: 240 nM
[3]; Mus musculus, B16-F10
  GI50: 310 nM
[4]; 400 mg/kg orally once daily
  Evaluation effective (+), Prostate Cancer: + (T/C (%) was 50% or less and having a significant difference at P value 1% on one side in a Mann-Whitney U test were evaluated as effective (+))
  T/C (%) Prostate Cancer: 24.8%
[5]; 400 mg/kg orally once daily
  Evaluation effective (+), Colon Cancer (reference): + (T/C (%) was 50% or less and having a significant difference at P value 1% on one side in a Mann-Whitney U test were evaluated as effective (+))
  T/C (%) Colon Cancer (reference): 33.2%

## COC(=O)Oc1cccc2c1nc(C(F)F)n2-c1nc(N2CCOCC2)cc(N2CCOC(C)(C)C2)n1 [Compound 14, 2-(2-difluoromethyl-4-methoxycarbonyloxybenzimidazol-1-yl)-4-(2,2-dimethyl-moropholino)-6-morpholinopyrimidine]
[4]; 200 mg/kg orally once daily
  Evaluation effective (+), Prostate Cancer: + (T/C (%) was 50% or less and having a significant difference at P value 1% on one side in a Mann-Whitney U test were evaluated as effective (+))
  T/C (%) Prostate Cancer: 47.3%

## COc1cccc2c1nc(C(F)F)n2-c1nc(N2CCOCC2)cc(N2CCOC(C)(C)C2)n1 [Compound 5, 2-(2-difluoromethyl-4-methoxybenzimidazol-1-yl)-4-(2,2-dimethylmorpholino)-6-morpholinopyrimidine]
[4]; 200 mg/kg orally once daily
  Evaluation effective (+), Prostate Cancer: + (T/C (%) was 50% or less and having a significant difference at P value 1% on one side in a Mann-Whitney U test were evaluated as effective (+))
  T/C (%) Prostate Cancer: 39.1%
[5]; 100 mg/kg orally once daily
  Evaluation effective (+), Colon Cancer (reference): + (T/C (%) was 50% or less and having a significant difference at P value 1% on one side in a Mann-Whitney U test were evaluated as effective (+))
other
  melting point: 160 to 162 °C

## OCC1CCCN1c1nc(N2CCOCC2)nc(-n2c(C(F)F)nc3c(O)cccc32)n1 (stereo not shown) [Compound 9, 2-(2-difluoromethyl-4-hydroxybenzimidazol-1-yl)-4-(2-hydroxymethylpyrrolidin-1-yl)-6-morpholino-1,3,5-triazine]
[1]; Homo sapiens
  GI50: 150 nM
[2]; Homo sapiens
  GI50: 20 nM
[3]; Mus musculus, B16-F10
  GI50: 63 nM
[4]; 200 mg/kg orally once daily
  Evaluation effective (+), Prostate Cancer: + (T/C (%) was 50% or less and having a significant difference at P value 1% on one side in a Mann-Whitney U test were evaluated as effective (+))
  T/C (%) Prostate Cancer: 31.8%
[5]; 200 mg/kg orally once daily
  Evaluation effective (+), Colon Cancer (reference): + (T/C (%) was 50% or less and having a significant difference at P value 1% on one side in a Mann-Whitney U test were evaluated as effective (+))
  T/C (%) Colon Cancer (reference): 49.6%

## CC1(C)CN(c2nc(N3CCOCC3)nc(-n3c(C(F)F)nc4ccccc43)n2)CCO1 [Compound 2, 2-(2-difluoromethylbenzimidazol-1-yl)-4-(2,2-dimethylmorpholino)-6-morpholino-1,3,5-triazine]
[1]; Homo sapiens
  GI50: 1500 nM
[2]; Homo sapiens
  GI50: 740 nM
[3]; Mus musculus, B16-F10
  GI50: 950 nM
other
  melting point: 176 to 178 °C

## CCOC(=O)Oc1cccc2c1nc(C(F)F)n2-c1nc(N2CCOCC2)cc(N2C[C@@H](C)O[C@@H](C)C2)n1 [Compound 15, 2-(4-ethoxycarbonyloxy-2-difluoromethylbenzimidazol-1-yl)-4-(cis-2,6-dimethyl-moropholino)-6-morpholinopyrimidine]
[4]; 200 mg/kg orally once daily
  Evaluation effective (+), Prostate Cancer: + (T/C (%) was 50% or less and having a significant difference at P value 1% on one side in a Mann-Whitney U test were evaluated as effective (+))
  T/C (%) Prostate Cancer: 47.5%

## Oc1cccc2c1nc(C(F)F)n2-c1nc(N2CCOCC2)nc(N2CCOCC2)n1 [Compound 8, 2-(2-difluoromethyl-4-hydroxybenzimidazol-1-yl)-4,6-dimorpholino-1,3,5-triazine]
[1]; Homo sapiens
  GI50: 120 nM
[2]; Homo sapiens
  GI50: 10 nM
[3]; Mus musculus, B16-F10
  GI50: 18 nM
